Values quoted from earlier work in patent US6815409B2, “Gel laundry detergent and/or pretreater which piles up after dispensing” (Unilever Home & Personal Care USA division of Conopco, Inc., priority 2002, dated 2004).

Conditions: chain length 16; cited from Proc. R. Soc. London, A133, 140, 1931

Measured pKa value: 8.5
Compound: CCCCCCCCCCCCCCCC(=O)O [Fatty acid chain length 16]
